Test results as given in US20260217701A1, “SELECTIVE BET INHIBITORS AND USES THEREOF” (Tay Therapeutics Limited, priority 2022, published 2026).

Tested on: imiquimod-induced psoriasis
Test: Imiquimod-induced psoriasis model
Assay type: in vivo, mice
Conditions: for Mean scores of the presence of erythema on the skin of animals at the area of induction of psoriasis / Mean scores of the presence of induration on the skin of animals at the area of induction of psoriasis / Mean scores of the presence of peeling on the skin of animals at the area of induction of psoriasis: mean ± SEM; for Mean PASI Scores in IMI-Psoriasis Model: mice
Method in brief: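 Mice given topical imiquimod (5% cream) daily on depilated backs Days 1–14; Compound A in 5% DMSO/40% PEG-400/55% saline from Day 8, clobetasol topical as reference. Daily PASI (erythema, induration, peeling, each 0–4, summed) Days 8–15; spleen weight, open-field behaviour, serum IL-1B, IL-6, IL-17, TNF-α, IL-22, IL-23 at Day 15.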

[1] = IMI + 10 mg/kg, D8 (before start of treatment)

Cn1cc(-c2ccccc2)c(-c2cn(C)c(=O)c3[nH]c(-c4cnn(C(F)(F)F)c4)cc23)cc1=O [Compound A, 6-methyl-4-(1-methyl-2-oxo-5-phenyl-1,2-dihydropyridin-4-yl)-2-(1-(trifluoromethyl)-1H-pyrazol-4-yl)-1,6-dihydro-7H-pyrrolo[2,3-c]pyridin-7-one]
Mean scores of the presence of erythema on the skin of animals at the area of induction of psoriasis (IMI + 3 mg/kg, D15): 0.0 ± 0.0 | Mean scores of the presence of induration on the skin of animals at the area of induction of psoriasis (IMI + 3 mg/kg, D15): 0.1 ± 0.1 | Mean scores of the presence of peeling on the skin of animals at the area of induction of psoriasis (IMI + 3 mg/kg, D15): 0.3 ± 0.2 | Mean scores of the presence of erythema on the skin of animals at the area of induction of psoriasis [1]: 2.3 ± 0.2 | Mean scores of the presence of induration on the skin of animals at the area of induction of psoriasis [1]: 2.6 ± 0.2 | Mean scores of the presence of peeling on the skin of animals at the area of induction of psoriasis [1]: 2.3 ± 0.3 | Mean scores of the presence of erythema on the skin of animals at the area of induction of psoriasis (IMI + 10 mg/kg, D9): 1.2 ± 0.2 | Mean scores of the presence of induration on the skin of animals at the area of induction of psoriasis (IMI + 10 mg/kg, D9): 2.0 ± 0.3 | Mean scores of the presence of peeling on the skin of animals at the area of induction of psoriasis (IMI + 10 mg/kg, D9): 2.0 ± 0.3 | Mean scores of the presence of erythema on the skin of animals at the area of induction of psoriasis (IMI + 10 mg/kg, D10): 1.0 ± 0.2 | Mean scores of the presence of induration on the skin of animals at the area of induction of psoriasis (IMI + 10 mg/kg, D10): 1.8 ± 0.2 | Mean scores of the presence of peeling on the skin of animals at the area of induction of psoriasis (IMI + 10 mg/kg, D10): 1.5 ± 0.2 | Mean scores of the presence of erythema on the skin of animals at the area of induction of psoriasis (IMI + 10 mg/kg, D11): 1.3 ± 0.2 | Mean scores of the presence of induration on the skin of animals at the area of induction of psoriasis (IMI + 10 mg/kg, D11): 1.6 ± 0.2 | Mean scores of the presence of peeling on the skin of animals at the area of induction of psoriasis (IMI + 10 mg/kg, D11): 1.5 ± 0.2 | Mean scores of the presence of erythema on the skin of animals at the area of induction of psoriasis (IMI + 10 mg/kg, D12): 0.5 ± 0.2 | Mean scores of the presence of induration on the skin of animals at the area of induction of psoriasis (IMI + 10 mg/kg, D12): 1.1 ± 0.2 | Mean scores of the presence of peeling on the skin of animals at the area of induction of psoriasis (IMI + 10 mg/kg, D12): 1.3 ± 0.2 | Mean scores of the presence of erythema on the skin of animals at the area of induction of psoriasis (IMI + 10 mg/kg, D13): 0.1 ± 0.1 | Mean scores of the presence of induration on the skin of animals at the area of induction of psoriasis (IMI + 10 mg/kg, D13): 0.8 ± 0.2 | Mean scores of the presence of peeling on the skin of animals at the area of induction of psoriasis (IMI + 10 mg/kg, D13): 0.6 ± 0.2 | Mean scores of the presence of erythema on the skin of animals at the area of induction of psoriasis (IMI + 10 mg/kg, D14): 0.0 ± 0.0 | Mean scores of the presence of induration on the skin of animals at the area of induction of psoriasis (IMI + 10 mg/kg, D14): 0.4 ± 0.2 | Mean scores of the presence of peeling on the skin of animals at the area of induction of psoriasis (IMI + 10 mg/kg, D14): 0.3 ± 0.2 | Mean scores of the presence of erythema on the skin of animals at the area of induction of psoriasis (IMI + 10 mg/kg, D15): 0.0 ± 0.0 | Mean scores of the presence of induration on the skin of animals at the area of induction of psoriasis (IMI + 10 mg/kg, D15): 0.1 ± 0.1 | Mean scores of the presence of peeling on the skin of animals at the area of induction of psoriasis (IMI + 10 mg/kg, D15): 0.3 ± 0.2 | Mean PASI Scores in IMI-Psoriasis Model (IMI + 1 mg/kg, D8 (before start of treatment)): 7.3 ± 0.3 | Mean PASI Scores in IMI-Psoriasis Model (IMI + 1 mg/kg, D9): 7.0 ± 0.4 | Mean PASI Scores in IMI-Psoriasis Model (IMI + 1 mg/kg, D10): 6.0 ± 0.4 | Mean PASI Scores in IMI-Psoriasis Model (IMI + 1 mg/kg, D11): 5.8 ± 0.5 | Mean PASI Scores in IMI-Psoriasis Model (IMI + 1 mg/kg, D12): 4.4 ± 0.3 | Mean PASI Scores in IMI-Psoriasis Model (IMI + 1 mg/kg, D13): 3.1 ± 0.4 | Mean PASI Scores in IMI-Psoriasis Model (IMI + 1 mg/kg, D14): 2.1 ± 0.3 | Mean PASI Scores in IMI-Psoriasis Model (IMI + 1 mg/kg, D15): 1.1 ± 0.2 | Mean PASI Scores in IMI-Psoriasis Model (IMI + 3 mg/kg, D8 (before start of treatment)): 6.9 ± 0.4 | Mean PASI Scores in IMI-Psoriasis Model (IMI + 3 mg/kg, D9): 6.8 ± 0.4 | Mean PASI Scores in IMI-Psoriasis Model (IMI + 3 mg/kg, D10): 5.5 ± 0.3 | Mean PASI Scores in IMI-Psoriasis Model (IMI + 3 mg/kg, D11): 4.0 ± 0.3 | Mean PASI Scores in IMI-Psoriasis Model (IMI + 3 mg/kg, D12): 3.5 ± 0.4 | Mean PASI Scores in IMI-Psoriasis Model (IMI + 3 mg/kg, D13): 1.8 ± 0.3 | Mean PASI Scores in IMI-Psoriasis Model (IMI + 3 mg/kg, D14): 0.8 ± 0.3 | Mean PASI Scores in IMI-Psoriasis Model (IMI + 3 mg/kg, D15): 0.4 ± 0.2 | Mean PASI Scores in IMI-Psoriasis Model [1]: 7.1 ± 0.4 | Mean PASI Scores in IMI-Psoriasis Model (IMI + 10 mg/kg, D9): 5.3 ± 0.6 | Mean PASI Scores in IMI-Psoriasis Model (IMI + 10 mg/kg, D10): 4.3 ± 0.5 | Mean PASI Scores in IMI-Psoriasis Model (IMI + 10 mg/kg, D11): 4.4 ± 0.4 | Mean PASI Scores in IMI-Psoriasis Model (IMI + 10 mg/kg, D12): 2.9 ± 0.5 | Mean PASI Scores in IMI-Psoriasis Model (IMI + 10 mg/kg, D13): 1.5 ± 0.2 | Mean PASI Scores in IMI-Psoriasis Model (IMI + 10 mg/kg, D14): 0.6 ± 0.2 | Mean PASI Scores in IMI-Psoriasis Model (IMI + 10 mg/kg, D15): 0.4 ± 0.2 | body weight change over the last 7 days (mouse, in vivo): weight gains | erythema, induration and peeling of the skin at the area of induction (mouse, in vivo): significantly reduced | use of enrichment (nesting) (relative to vehicle-treated psoriasis animals): restored the use of enrichment | IL-17 level, lower than vehicle (placebo) treated animals (serum, day 15): > 93%
